# Measurements taken from ChEMBL document CHEMBL1641589, “Phosphoramidate pronucleotides of cytostatic 6-aryl-7-deazapurine ribonucleosides” (Bioorg Med Chem, 2011).
# System: not listed separately
# Assay: Chemical stability of the compound assessed as specific activity per ug at 30 uM after 30 mins in presence of purified carboxylesterase 2
# Format: physicochemical
# Conditions: isolated protein, 0.5 h
row,Stability [pmol/min],Compound
1,0,COC(=O)[C@H](C)NP(=O)(OC[C@H]1O[C@@H](n2ccc3c(-c4ccco4)ncnc32)[C@H](O)[C@@H]1O)Oc1ccccc1 (stereo partly specified)
2,0,CCOC(=O)[C@H](C)NP(=O)(OC[C@H]1O[C@@H](n2ccc3c(-c4ccco4)ncnc32)[C@H](O)[C@@H]1O)Oc1ccccc1 (stereo partly specified)
3,0,C[C@H](NP(=O)(OC[C@H]1O[C@@H](n2ccc3c(-c4ccco4)ncnc32)[C@H](O)[C@@H]1O)Oc1ccccc1)C(=O)OCc1ccccc1 (stereo partly specified)

# System: not listed separately
# Assay: Chemical stability of the compound assessed as specific activity per ug at 30 uM after 30 mins in presence of purified carboxylesterase 1
# Format: physicochemical
# Conditions: isolated protein, 0.5 h
row,Stability [pmol/min],Compound
1,86,COC(=O)[C@H](C)NP(=O)(OC[C@H]1O[C@@H](n2ccc3c(-c4ccco4)ncnc32)[C@H](O)[C@@H]1O)Oc1ccccc1 (stereo partly specified)
2,149,CCOC(=O)[C@H](C)NP(=O)(OC[C@H]1O[C@@H](n2ccc3c(-c4ccco4)ncnc32)[C@H](O)[C@@H]1O)Oc1ccccc1 (stereo partly specified)
3,133,C[C@H](NP(=O)(OC[C@H]1O[C@@H](n2ccc3c(-c4ccco4)ncnc32)[C@H](O)[C@@H]1O)Oc1ccccc1)C(=O)OCc1ccccc1 (stereo partly specified)

# System: not listed separately
# Assay: Chemical stability of the compound assessed as specific activity per ug at 30 uM after 30 mins in presence of purified cathepsin A
# Format: physicochemical
# Conditions: 0.5 h
row,Stability [pmol/min],Compound
1,1249,COC(=O)[C@H](C)NP(=O)(OC[C@H]1O[C@@H](n2ccc3c(-c4ccco4)ncnc32)[C@H](O)[C@@H]1O)Oc1ccccc1 (stereo partly specified)
2,11989,CCOC(=O)[C@H](C)NP(=O)(OC[C@H]1O[C@@H](n2ccc3c(-c4ccco4)ncnc32)[C@H](O)[C@@H]1O)Oc1ccccc1 (stereo partly specified)
3,14727,C[C@H](NP(=O)(OC[C@H]1O[C@@H](n2ccc3c(-c4ccco4)ncnc32)[C@H](O)[C@@H]1O)Oc1ccccc1)C(=O)OCc1ccccc1 (stereo partly specified)

# System: CCRF-CEM
# Assay: Cell cycle arrest in human CCRF-CEM cells assessed as increased of cellular debris level at IC50 concentration using propidium iodide staining by flow cytometry relative to control
# Format: functional
# Conditions: not given
row,Compound,Activity [%]
1,CCOC(=O)[C@H](C)NP(=O)(OC[C@H]1O[C@@H](n2ccc3c(-c4ccco4)ncnc32)[C@H](O)[C@@H]1O)Oc1ccccc1 (stereo partly specified),42.5
2,C[C@H](NP(=O)(OC[C@H]1O[C@@H](n2ccc3c(-c4ccco4)ncnc32)[C@H](O)[C@@H]1O)Oc1ccccc1)C(=O)OCc1ccccc1 (stereo partly specified),48.8

# System: CCRF-CEM
# Assay: Cell cycle arrest in human CCRF-CEM cells assessed as accumulation at G2/M phase at IC50 concentration using propidium iodide staining by flow cytometry relative to control
# Format: functional
# Conditions: not given
row,Compound,Activity [%]
1,CCOC(=O)[C@H](C)NP(=O)(OC[C@H]1O[C@@H](n2ccc3c(-c4ccco4)ncnc32)[C@H](O)[C@@H]1O)Oc1ccccc1 (stereo partly specified),18.06
2,C[C@H](NP(=O)(OC[C@H]1O[C@@H](n2ccc3c(-c4ccco4)ncnc32)[C@H](O)[C@@H]1O)Oc1ccccc1)C(=O)OCc1ccccc1 (stereo partly specified),13.7

# System: CCRF-CEM
# Assay: Cell cycle arrest in human CCRF-CEM cells assessed as accumulation at S phase at IC50 concentration using propidium iodide staining by flow cytometry relative to control
# Format: functional
# Conditions: not given
row,Compound,Activity [%]
1,CCOC(=O)[C@H](C)NP(=O)(OC[C@H]1O[C@@H](n2ccc3c(-c4ccco4)ncnc32)[C@H](O)[C@@H]1O)Oc1ccccc1 (stereo partly specified),55.3
2,C[C@H](NP(=O)(OC[C@H]1O[C@@H](n2ccc3c(-c4ccco4)ncnc32)[C@H](O)[C@@H]1O)Oc1ccccc1)C(=O)OCc1ccccc1 (stereo partly specified),54.7

# System: CCRF-CEM
# Assay: Cell cycle arrest in human CCRF-CEM cells assessed as accumulation at G1 phase at IC50 concentration using propidium iodide staining by flow cytometry relative to control
# Format: functional
# Conditions: not given
row,Compound,Activity [%]
1,CCOC(=O)[C@H](C)NP(=O)(OC[C@H]1O[C@@H](n2ccc3c(-c4ccco4)ncnc32)[C@H](O)[C@@H]1O)Oc1ccccc1 (stereo partly specified),26.6
2,C[C@H](NP(=O)(OC[C@H]1O[C@@H](n2ccc3c(-c4ccco4)ncnc32)[C@H](O)[C@@H]1O)Oc1ccccc1)C(=O)OCc1ccccc1 (stereo partly specified),31.6

# System: HepG2
# Assay: Cytotoxicity against human HepG2 cells after 3 days by XTT assay
# Format: functional, cell-based
# Conditions: HepG2, 72 h
row,Compound,IC50 [nM]
1,COC(=O)[C@H](C)NP(=O)(OC[C@H]1O[C@@H](n2ccc3c(-c4ccco4)ncnc32)[C@H](O)[C@@H]1O)Oc1ccccc1 (stereo partly specified),1200
2,CCOC(=O)[C@H](C)NP(=O)(OC[C@H]1O[C@@H](n2ccc3c(-c4ccco4)ncnc32)[C@H](O)[C@@H]1O)Oc1ccccc1 (stereo partly specified),1420
3,C[C@H](NP(=O)(OC[C@H]1O[C@@H](n2ccc3c(-c4ccco4)ncnc32)[C@H](O)[C@@H]1O)Oc1ccccc1)C(=O)OCc1ccccc1 (stereo partly specified),620

# System: not listed separately
# Assay: Cytotoxicity against human HeLaS3 cells after 3 days by XTT assay
# Format: functional, cell-based
# Conditions: HeLa S3, 72 h
row,Compound,IC50 [nM]
1,COC(=O)[C@H](C)NP(=O)(OC[C@H]1O[C@@H](n2ccc3c(-c4ccco4)ncnc32)[C@H](O)[C@@H]1O)Oc1ccccc1 (stereo partly specified),1400
2,CCOC(=O)[C@H](C)NP(=O)(OC[C@H]1O[C@@H](n2ccc3c(-c4ccco4)ncnc32)[C@H](O)[C@@H]1O)Oc1ccccc1 (stereo partly specified),1020
3,C[C@H](NP(=O)(OC[C@H]1O[C@@H](n2ccc3c(-c4ccco4)ncnc32)[C@H](O)[C@@H]1O)Oc1ccccc1)C(=O)OCc1ccccc1 (stereo partly specified),580

# System: HL-60
# Assay: Cytotoxicity against human HL60 cells after 5 days by SRB assay
# Format: functional
# Conditions: HL-60, 120 h
row,Compound,GI50 [nM]
1,COC(=O)[C@H](C)NP(=O)(OC[C@H]1O[C@@H](n2ccc3c(-c4ccco4)ncnc32)[C@H](O)[C@@H]1O)Oc1ccccc1 (stereo partly specified),3310
2,CCOC(=O)[C@H](C)NP(=O)(OC[C@H]1O[C@@H](n2ccc3c(-c4ccco4)ncnc32)[C@H](O)[C@@H]1O)Oc1ccccc1 (stereo partly specified),4860
3,C[C@H](NP(=O)(OC[C@H]1O[C@@H](n2ccc3c(-c4ccco4)ncnc32)[C@H](O)[C@@H]1O)Oc1ccccc1)C(=O)OCc1ccccc1 (stereo partly specified),2190

# System: CCRF-CEM
# Assay: Cytotoxicity against human CCRF-CEM cells after 3 days by XTT assay
# Format: functional, cell-based
# Conditions: 72 h
row,Compound,IC50 [nM]
1,COC(=O)[C@H](C)NP(=O)(OC[C@H]1O[C@@H](n2ccc3c(-c4ccco4)ncnc32)[C@H](O)[C@@H]1O)Oc1ccccc1 (stereo partly specified),3440
2,CCOC(=O)[C@H](C)NP(=O)(OC[C@H]1O[C@@H](n2ccc3c(-c4ccco4)ncnc32)[C@H](O)[C@@H]1O)Oc1ccccc1 (stereo partly specified),3340
3,C[C@H](NP(=O)(OC[C@H]1O[C@@H](n2ccc3c(-c4ccco4)ncnc32)[C@H](O)[C@@H]1O)Oc1ccccc1)C(=O)OCc1ccccc1 (stereo partly specified),1130

# System: DU-145
# Assay: Cytotoxicity against human DU145 cells after 5 days by SRB assay
# Format: functional
# Conditions: DU-145, 120 h
row,Compound,GI50 [nM]
1,COC(=O)[C@H](C)NP(=O)(OC[C@H]1O[C@@H](n2ccc3c(-c4ccco4)ncnc32)[C@H](O)[C@@H]1O)Oc1ccccc1 (stereo partly specified),1190
2,CCOC(=O)[C@H](C)NP(=O)(OC[C@H]1O[C@@H](n2ccc3c(-c4ccco4)ncnc32)[C@H](O)[C@@H]1O)Oc1ccccc1 (stereo partly specified),2290
3,C[C@H](NP(=O)(OC[C@H]1O[C@@H](n2ccc3c(-c4ccco4)ncnc32)[C@H](O)[C@@H]1O)Oc1ccccc1)C(=O)OCc1ccccc1 (stereo partly specified),1360

# System: not listed separately
# Assay: Cytotoxicity against human Hs578 cells after 5 days by SRB assay
# Format: functional
# Conditions: Hs578, 120 h
row,Compound,GI50 [nM]
1,COC(=O)[C@H](C)NP(=O)(OC[C@H]1O[C@@H](n2ccc3c(-c4ccco4)ncnc32)[C@H](O)[C@@H]1O)Oc1ccccc1 (stereo partly specified),2310
2,CCOC(=O)[C@H](C)NP(=O)(OC[C@H]1O[C@@H](n2ccc3c(-c4ccco4)ncnc32)[C@H](O)[C@@H]1O)Oc1ccccc1 (stereo partly specified),2180
3,C[C@H](NP(=O)(OC[C@H]1O[C@@H](n2ccc3c(-c4ccco4)ncnc32)[C@H](O)[C@@H]1O)Oc1ccccc1)C(=O)OCc1ccccc1 (stereo partly specified),1040

# System: NCI-H23
# Assay: Cytotoxicity against human NCI-H23 cells after 5 days by SRB assay
# Format: functional
# Conditions: NCI-H23, 120 h
row,Compound,GI50 [nM]
1,COC(=O)[C@H](C)NP(=O)(OC[C@H]1O[C@@H](n2ccc3c(-c4ccco4)ncnc32)[C@H](O)[C@@H]1O)Oc1ccccc1 (stereo partly specified),4630
2,CCOC(=O)[C@H](C)NP(=O)(OC[C@H]1O[C@@H](n2ccc3c(-c4ccco4)ncnc32)[C@H](O)[C@@H]1O)Oc1ccccc1 (stereo partly specified),2870
3,C[C@H](NP(=O)(OC[C@H]1O[C@@H](n2ccc3c(-c4ccco4)ncnc32)[C@H](O)[C@@H]1O)Oc1ccccc1)C(=O)OCc1ccccc1 (stereo partly specified),1910

# System: HCT-116
# Assay: Cytotoxicity against human HCT116 cells after 5 days by SRB assay
# Format: functional
# Conditions: HCT-116, 120 h
row,Compound,GI50 [nM]
1,COC(=O)[C@H](C)NP(=O)(OC[C@H]1O[C@@H](n2ccc3c(-c4ccco4)ncnc32)[C@H](O)[C@@H]1O)Oc1ccccc1 (stereo partly specified),1030
2,CCOC(=O)[C@H](C)NP(=O)(OC[C@H]1O[C@@H](n2ccc3c(-c4ccco4)ncnc32)[C@H](O)[C@@H]1O)Oc1ccccc1 (stereo partly specified),2500
3,C[C@H](NP(=O)(OC[C@H]1O[C@@H](n2ccc3c(-c4ccco4)ncnc32)[C@H](O)[C@@H]1O)Oc1ccccc1)C(=O)OCc1ccccc1 (stereo partly specified),1080
